These are literature values, as cited in patent US12064440B2, “Ophthalmic gel compositions of bimatoprost and timolol and associated methods” (Somerset Therapeutics, LLC, priority 2022, dated 2024).

For the data set the following is noted: under certain conditions.

On to `CCNC(=O)CCC/C=C\C[C@@H]1[C@@H](/C=C/[C@@H](O)CCc2ccccc2)[C@H](O)C[C@@H]1O` [bimatoprost, (Z)-7-[(1R, 2R, 3R, 5S)-3,5-Dihydroxy-2-[(1E, 3S)-3-hydroxy-5-phenyl-1-pentenyl]cyclopentyl]-5-N-ethylheptenamid], for which the “active pharmaceutical ingredient (API) stability” value (shortened to “active pharmaceutical ingredient”) is recorded as “remain stable”.

With `CC(C)OC(=O)CCC/C=C\C[C@@H]1[C@@H](CC[C@@H](O)CCc2ccccc2)[C@H](O)C[C@@H]1O` [latanoprost], the “active pharmaceutical ingredient” value is “degradation”.

`CC(C)OC(=O)CCC/C=C\C[C@@H]1[C@@H](/C=C/[C@@H](O)COc2cccc(C(F)(F)F)c2)[C@H](O)C[C@@H]1O` [travoprost]: the “active pharmaceutical ingredient” value was “degradation”.
